Source: US11230543B2, “Biaryl monobactam compounds and methods of use thereof for the treatment of bacterial infections” (priority 2015, dated 2022)
Structures can show the parent of a compound that is named as a salt.

Assays:
[1] = tested on: Klebsiella pneumoniae expressing KPC-1 (CL6569); experiment: Antibiotic activity: growth inhibitory concentration (OD600), Klebsiella pneumoniae CL6569; format: cell-based; conditions: lowest concentration inhibiting 95% of bacterial growth; in the presence of β lactamase inhibitor Relebactam 4 μg/mL; 35±2° C. for 22 hours; tested range 100 μM to 0.098 μM
Procedure, shortened: (§1)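 Growth inhibition by OD600 after 22 hours incubation at 35±2° C, reported as lowest concentration inhibiting 95% of growth (MITC95). Final compound range 100 μM to 0.098 μM, always combined with β-lactamase inhibitor relebactam (4 μg/mL final); inoculum ~2×10^5 CFU/mL in cation-adjusted Mueller-Hinton II broth.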

[2] = tested on: Pseudomonas aeruginosa expressing AmpC (CL5701); experiment: Antibiotic activity: growth inhibitory concentration (OD600), Pseudomonas aeruginosa CL5701; format: cell-based; conditions: lowest concentration inhibiting 95% of bacterial growth; in the presence of β lactamase inhibitor Relebactam 4 μg/mL; 35±2° C. for 22 hours; tested range 100 μM to 0.098 μM
Procedure, shortened: as §1

CC1(C)[C@H](NC(=O)/C(=N\O[C@@H](COc2ccc(Oc3cc[n+](CCCN)cc3)nc2)C(=O)O)c2csc(N)n2)C(=O)N1OS(=O)(=O)O.O=C([O-])C(F)(F)F [Example 34, 1-(3-aminopropyl)-4-((5-((S)-2-((((Z)-1-(2-aminothiazol-4-yl)-2-(((S)-2,2-dimethyl-4-oxo-1-(sulfooxy)azetidin-3-yl)amino)-2-oxoethylidene)amino)oxy)-2-carboxyethoxy)pyridin-2-yl)oxy)pyridin-1-ium 2,2,2-trifluoroacetate]
KP_CL6569 MITC95 [1]: 0.78 µM | PA_CL5701 MITC95 [2]: 25 µM

Cc1cn(CCCN)[n+](C)c1-c1ccc(OC[C@H](O/N=C(\C(=O)N[C@@H]2C(=O)N(OS(=O)(=O)O)C2(C)C)c2csc(N)n2)C(=O)O)cc1.O=C([O-])C(F)(F)F [Example 19, 1-(3-aminopropyl)-3-(4-((S)-2-((((Z)-1-(2-aminothiazol-4-yl)-2-(((S)-2,2-dimethyl-4-oxo-1-(sulfooxy)azetidin-3-yl)amino)-2-oxo-ethylidene)amino)oxy)-2-carboxyethoxy)phenyl)-2,4-dimethyl-1H-pyrazol-2-ium 2,2,2-trifluoroacetate]
KP_CL6569 MITC95 [1]: 0.7813 µM | PA_CL5701 MITC95 [2]: 12.5 µM

C[n+]1cc(-c2ccc(OC[C@H](O/N=C(\C(=O)N[C@@H]3C(=O)N(OS(=O)(=O)[O-])C3(C)C)c3csc(N)n3)C(=O)O)cc2)ccc1NC(CN)CN [Example 82, (S)-3-((Z)-2-(2-aminothiazol-4-yl)-2-(((S)-1-carboxy-2-(4-(6-((1,3-diaminopropan-2-yl)amino)-1-methylpyridin-1-ium-3-yl)phenoxy)ethoxy)imino)acetamido)-2,2-dimethyl-4-oxoazetidin-1-yl sulfate]
KP_CL6569 MITC95 [1]: 0.1953 µM | PA_CL5701 MITC95 [2]: 3.125 µM

CC(CN)Nc1ccc(-c2ccc(OC[C@H](O/N=C(\C(=O)N[C@@H]3C(=O)N(OS(=O)(=O)[O-])C3(C)C)c3csc(N)n3)C(=O)O)cc2)c[n+]1C (stereo partly drawn) [Example 76, (3S)-3-((Z)-2-(((1S)-2-(4-(6-((1-aminopropan-2-yl)amino)-1-methylpyridin-1-ium-3-yl)phenoxy)-1-carboxyethoxy)imino)-2-(2-aminothiazol-4-yl)acetamido)-2,2-dimethyl-4-oxoazetidin-1-yl sulfate]
KP_CL6569 MITC95 [1]: 0.1953 µM | PA_CL5701 MITC95 [2]: 3.125 µM

COC(=O)[C@H](COc1ccc(-c2cn(CCCN)[n+](C)c2)cc1)O/N=C(\C(=O)N[C@@H]1C(=O)N(OS(=O)(=O)[O-])C1(C)C)c1csc(N)n1 [Example 117, (S)-3-((Z)-2-((((S)-3-(4-(1-(3-aminopropyl)-2-methyl-1H-pyrazol-2-ium-4-yl)phenoxy)-1-methoxy-1-oxopropan-2-yl)oxy)imino)-2-(2-aminothiazol-4-yl)acetamido)-2,2-dimethyl-4-oxoazetidin-1-yl sulfate]
KP_CL6569 MITC95 [1]: 3.125 µM | PA_CL5701 MITC95 [2]: 25 µM

CC1[C@H](NC(=O)/C(=N\O[C@@H](COc2ccc(-c3cnn(CCCN)c3)cc2)C(=O)O)c2csc(N)n2)C(=O)N1S(=O)(=O)O (stereo in doubt) [Example 8, (S)-3-(4-(1-(3-aminopropyl)-1H-pyrazol-4-yl)phenoxy)-2-((((Z)-1-(2-aminothiazol-4-yl)-2-(((2R,3S)-2-methyl-4-oxo-1-sulfoazetidin-3-yl)amino)-2-oxoethylidene)amino)oxy)propanoic acid]
KP_CL6569 MITC95 [1]: 3.125 µM | PA_CL5701 MITC95 [2]: 25 µM

CC1(C)[C@H](NC(=O)/C(=N\O[C@@H](COc2ccc(-c3cnc(NCCN)[n+](CC4CNC4)c3)cc2)C(=O)O)c2csc(N)n2)C(=O)N1OS(=O)(=O)[O-] [Example 99, (S)-3-((Z)-2-(((S)-2-(4-(2-((2-aminoethyl)amino)-1-(azetidin-3-ylmethyl)pyrimidin-1-ium-5-yl)phenoxy)-1-carboxyethoxy)imino)-2-(2-aminothiazol-4-yl)acetamido)-2,2-dimethyl-4-oxoazetidin-1-yl sulfate]
KP_CL6569 MITC95 [1]: 0.1953 µM | PA_CL5701 MITC95 [2]: 3.125 µM

CC1(C)[C@H](NC(=O)/C(=N\O[C@@H](COc2ccc(Nc3cc[n+](CCCN)cc3)nc2)C(=O)O)c2csc(N)n2)C(=O)N1OS(=O)(=O)O [Example 33, 1-(3-aminopropyl)-4-((5-((S)-2-((((Z)-1-(2-aminothiazol-4-yl)-2-(((S)-2,2-dimethyl-4-oxo-1-(sulfooxy)azetidin-3-yl)amino)-2-oxoethylidene)amino)oxy)-2-carboxyethoxy)pyridin-2-yl)amino)pyridin-1-ium 2,2,2-trifluoroacetate]
KP_CL6569 MITC95 [1]: 0.3906 µM | PA_CL5701 MITC95 [2]: 6.25 µM

CC1(C)[C@H](NC(=O)/C(=N\O[C@@H](COc2ccc(-n3cc[n+](CCCN)c3)nc2)C(=O)O)c2csc(N)n2)C(=O)N1OS(=O)(=O)[O-] [Example 112, (S)-3-((Z)-2-(((S)-2-((6-(3-(3-aminopropyl)-1H-imidazol-3-ium-1-yl)pyridin-3-yl)oxy)-1-carboxyethoxy)imino)-2-(2-aminothiazol-4-yl)acetamido)-2,2-dimethyl-4-oxoazetidin-1-yl sulfate]
KP_CL6569 MITC95 [1]: 0.7813 µM | PA_CL5701 MITC95 [2]: 10.42 µM

C[n+]1cc(-c2ccc(OC[C@H](O/N=C(\C(=O)N[C@@H]3C(=O)N(OS(=O)(=O)[O-])C3(C)C)c3csc(N)n3)C(=O)O)cc2)ccc1N1CCNCC1 [Example 71, (S)-3-((Z)-2-(2-aminothiazol-4-yl)-2-(((S)-1-carboxy-2-(4-(1-methyl-6-(piperazin-1-yl)pyridin-1-ium-3-yl)phenoxy)ethoxy)imino)acetamido)-2,2-dimethyl-4-oxoazetidin-1-yl sulfate]
KP_CL6569 MITC95 [1]: 0.1953 µM | PA_CL5701 MITC95 [2]: 6.25 µM

C[n+]1c(N)c(-c2ccc(OC[C@H](O/N=C(\C(=O)N[C@@H]3C(=O)N(OS(=O)(=O)[O-])C3(C)C)c3nc(N)sc3Cl)C(=O)O)cc2F)cn1CCCN [Example 48, (S)-3-((Z)-2-(((S)-2-(4-(3-Amino-1-(3-aminopropyl)-2-methyl-1H-pyrazol-2-ium-4-yl)-3-fluorophenoxy)-1-carboxyethoxy)imino)-2-(2-amino-5-chlorothiazol-4-yl)acetamido)-2,2-dimethyl-4-oxoazetidin-1-yl sulfate]
KP_CL6569 MITC95 [1]: 0.7813 µM | PA_CL5701 MITC95 [2]: 6.25 µM

C[n+]1cc(-c2ccc(OC[C@H](O/N=C(\C(=O)N[C@@H]3C(=O)N(OS(=O)(=O)[O-])C3(C)C)c3csc(N)n3)C(=O)O)cc2)cn1CC1CNC1 [Example 16, (S)-3-((Z)-2-(2-aminothiazol-4-yl)-2-(((S)-2-(4-(1-(azetidin-3-ylmethyl)-2-methyl-1H-pyrazol-2-ium-4-yl)phenoxy)-1-carboxy-ethoxy)imino)acetamido)-2,2-dimethyl-4-oxoazetidin-1-yl sulfate]
KP_CL6569 MITC95 [1]: 0.3906 µM | PA_CL5701 MITC95 [2]: 3.125 µM

CC1(C)[C@H](NC(=O)/C(=N\O[C@@H](COc2ccc(-n3ccn(CCCN)c3=N)nc2)C(=O)O)c2csc(N)n2)C(=O)N1OS(=O)(=O)O [Example 118, (S)-3-((6-(3-(3-aminopropyl)-2-imino-2,3-dihydro-1H-imidazol-1-yl)pyridin-3-yl)oxy)-2-((((Z)-1-(2-aminothiazol-4-yl)-2-(((S)-2,2-dimethyl-4-oxo-1-(sulfooxy)azetidin-3-yl)amino)-2-oxoethylidene)amino)oxy)propanoic acid]
KP_CL6569 MITC95 [1]: 0.3906 µM | PA_CL5701 MITC95 [2]: 6.25 µM

CC1(C)[C@H](NC(=O)/C(=N\O[C@@H](COc2ccc(-c3ccc(C(=O)NC(CN)CN)nc3)cc2)C(=O)O)c2csc(N)n2)C(=O)N1OS(=O)(=O)O [Example 81, (S)-2-((((Z)-1-(2-aminothiazol-4-yl)-2-(((S)-2,2-dimethyl-4-oxo-1-(sulfooxy)azetidin-3-yl)amino)-2-oxoethylidene)amino)oxy)-3-(4-(6-((1,3-diaminopropan-2-yl)carbamoyl)pyridin-3-yl)phenoxy)propanoic acid]
KP_CL6569 MITC95 [1]: 0.1953 µM | PA_CL5701 MITC95 [2]: 3.125 µM

C[n+]1cc(-c2ccc(OC[C@H](O/N=C(\C(=O)N[C@@H]3C(=O)N(OS(=O)(=O)O)C3(C)C)c3csc(N)n3)C(=O)O)c(F)c2)cn1CCCN [Example 15, 1-(3-aminopropyl)-4-(4-((S)-2-((((Z)-1-(2-aminothiazol-4-yl)-2-(((S)-2,2-dimethyl-4-oxo-1-(sulfooxy)azetidin-3-yl)amino)-2-oxo-ethylidene)amino)oxy)-2-carboxyethoxy)-3-fluorophenyl)-2-methyl-1H-pyrazol-2-ium, TFA salt (1:1)]
KP_CL6569 MITC95 [1]: 0.3906 µM | PA_CL5701 MITC95 [2]: 6.25 µM

C[C@H]1[C@H](NC(=O)/C(=N\O[C@@H](COc2ccc(-c3cnn(CCCN)c3)cc2)C(=O)O)c2csc(N)n2)C(=O)N1S(=O)(=O)O [Example 6, (S)-3-(4-(1-(3-aminopropyl)-1H-pyrazol-4-yl)phenoxy)-2-((((Z)-1-(2-aminothiazol-4-yl)-2-(((2S,3S)-2-methyl-4-oxo-1-sulfoazetidin-3-yl)amino)-2-oxoethylidene)amino)oxy)propanoic acid]
KP_CL6569 MITC95 [1]: 12.5 µM | PA_CL5701 MITC95 [2]: 100 µM

CC1(C)[C@H](NC(=O)/C(=N\O[C@@H](COc2ccc(-c3ccc(NCCN)[n+](CC4CNC4)c3)cc2)C(=O)O)c2csc(N)n2)C(=O)N1OS(=O)(=O)[O-] [Example 98, (S)-3-((Z)-2-(((S)-2-(4-(6-((2-aminoethyl)amino)-1-(azetidin-3-ylmethyl)pyridin-1-ium-3-yl)phenoxy)-1-carboxyethoxy)imino)-2-(2-aminothiazol-4-yl)acetamido)-2,2-dimethyl-4-oxoazetidin-1-yl sulfate]
KP_CL6569 MITC95 [1]: 0.09766 µM | PA_CL5701 MITC95 [2]: 1.563 µM

C[n+]1cc(-c2ccc(CCC(O/N=C(\C(=O)N[C@@H]3C(=O)N(OS(=O)(=O)[O-])C3(C)C)c3csc(N)n3)C(=O)O)cc2)cn1CCCN (single isomer, unassigned) [Example 93]
KP_CL6569 MITC95 [1]: 0.1953 µM | PA_CL5701 MITC95 [2]: 6.25 µM
